Reference: ChEMBL document CHEMBL1201862, “PubChem BioAssay data set” (2004)
Calls of active or inactive are those of the source.

Columns and labels:
[1] = target: T1, Fructose-bisphosphate aldolase (Mycobacterium tuberculosis, UniProt P9WQA3); test: Fluorescence-based biochemical high throughput dose response assay for inhibitors of the fructose-bisphosphate aldolase (FBA) of M. tuberculosis.; type: functional
T1 sequence (P9WQA3 whole entry): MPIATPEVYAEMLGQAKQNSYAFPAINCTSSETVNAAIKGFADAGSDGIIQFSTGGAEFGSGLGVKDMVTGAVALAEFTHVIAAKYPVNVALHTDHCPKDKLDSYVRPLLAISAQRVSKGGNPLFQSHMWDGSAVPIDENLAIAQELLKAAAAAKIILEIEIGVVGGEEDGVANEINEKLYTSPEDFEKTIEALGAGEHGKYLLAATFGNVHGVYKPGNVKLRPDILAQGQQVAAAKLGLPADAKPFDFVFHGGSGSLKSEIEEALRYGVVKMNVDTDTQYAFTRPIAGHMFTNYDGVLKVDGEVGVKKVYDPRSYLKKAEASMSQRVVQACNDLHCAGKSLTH

[2] = target: T2, Corticotropin-releasing factor receptor 2/Corticotropin-releasing factor-binding protein (Homo sapiens, UniProt P24387+Q13324); test: Dose Response confirmation of uHTS hits for small molecule antagonists of the CRF-binding protein and CRF-R2 receptor complex.; type: functional; conditions: read-out: IC50_Mean
T2 sequence (Q13324 whole entry): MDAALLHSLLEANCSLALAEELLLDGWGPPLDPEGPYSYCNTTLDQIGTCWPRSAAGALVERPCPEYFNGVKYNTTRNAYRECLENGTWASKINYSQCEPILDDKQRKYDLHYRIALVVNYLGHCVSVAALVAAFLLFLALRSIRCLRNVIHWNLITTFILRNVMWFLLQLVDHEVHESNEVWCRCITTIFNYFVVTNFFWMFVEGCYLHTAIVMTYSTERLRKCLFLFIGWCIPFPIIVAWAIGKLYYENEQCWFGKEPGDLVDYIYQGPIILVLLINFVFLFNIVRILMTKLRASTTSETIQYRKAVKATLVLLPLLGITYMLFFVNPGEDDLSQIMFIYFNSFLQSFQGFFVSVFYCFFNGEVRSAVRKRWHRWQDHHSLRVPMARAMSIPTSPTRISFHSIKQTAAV
T2 sequence (P24387 whole entry): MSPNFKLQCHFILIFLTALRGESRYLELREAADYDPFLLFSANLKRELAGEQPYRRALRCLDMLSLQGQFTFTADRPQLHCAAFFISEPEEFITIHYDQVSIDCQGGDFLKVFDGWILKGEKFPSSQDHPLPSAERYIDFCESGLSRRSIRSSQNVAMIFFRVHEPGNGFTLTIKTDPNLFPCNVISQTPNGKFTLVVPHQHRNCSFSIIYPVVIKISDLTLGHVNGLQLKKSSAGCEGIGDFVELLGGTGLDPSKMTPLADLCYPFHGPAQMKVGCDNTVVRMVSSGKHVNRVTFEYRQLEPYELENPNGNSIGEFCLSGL

[3] = blockers of CRF-binding protein–CRF-R2 complex – cell-based, uHTS hits, 384-well, dose response (AID 651639); type: functional, Homo sapiens; conditions: read-out: IC50_Mean
[4] = target: T2, Corticotropin-releasing factor receptor 2/Corticotropin-releasing factor-binding protein; test: activators of CRF receptor 2 with binding protein – uHTS hits, confirmation (AID 602473); type: functional; conditions: read-out: EC50_Mean
[5] = NIH-3T3 fibroblast cytotoxicity, dose response, cytotoxicity control, cell-based, fluorescence, Alamar Blue, secondary assay (AID 2327); type: functional;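 further: NIH-3T3 mouse fibroblasts cultured with fluconazole at 8 µg/mL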
[6] = target: T3, Carboxy-terminal domain RNA polymerase II polypeptide A small phosphatase 1 (Homo sapiens, UniProt Q9GZU7); test: CTDSP1 inhibitors, concentration-response, biochemical, absorbance readout, ultra-high-throughput screen actives (AID 540297); type: functional
T3 sequence (Q9GZU7 whole entry): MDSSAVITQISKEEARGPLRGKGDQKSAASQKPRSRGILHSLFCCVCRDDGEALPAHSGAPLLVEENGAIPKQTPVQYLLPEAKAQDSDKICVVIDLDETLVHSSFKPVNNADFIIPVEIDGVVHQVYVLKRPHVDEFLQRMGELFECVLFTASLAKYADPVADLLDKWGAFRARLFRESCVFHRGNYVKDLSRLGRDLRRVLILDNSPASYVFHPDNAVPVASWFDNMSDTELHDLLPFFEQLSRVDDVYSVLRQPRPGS

[7] = target: T4, Small ubiquitin-related modifier 1 (Homo sapiens, UniProt P63165); test: SUMO1 protein-protein binding blockers, potency – biochemical, FRET, dose response (AID 624383); type: functional; conditions: read-out: IC50_Mean
[8] = target: T4, Small ubiquitin-related modifier 1; test: SUMO1 protein interaction blockers, potency – biochemical, fluorescence polarization, uHTS hits, dose response (AID 624382); type: functional; conditions: read-out: IC50_Mean
[9] = target: T5, Protein Tat (Human immunodeficiency virus type 1 group M subtype B (isolate HXB2)(HIV-1), UniProt P04608); type: functional;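 further: tat binding to TAR RNA read out by fluorescence polarization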
T5 sequence (P04608 whole entry): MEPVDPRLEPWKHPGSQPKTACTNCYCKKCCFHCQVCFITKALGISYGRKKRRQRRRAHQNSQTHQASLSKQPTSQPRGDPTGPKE

[10] = viability inhibitors of stage V gametocytes – luminescence, dose response (AID 1117278); type: functional, cell-based;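 further: gametocytes exposed to compound for 24 hours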
[11] = viability loss in human Jurkat cells – cell-based, luminescence, cytotoxicity control for P. falciparum gametocyte viability project, dose response (AID 1117277); type: functional;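 further: potency reflects loss of cellular ATP meaning fewer viable cells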
[12] = Counterscreen for activators of the function of SWI/SNF related, matrix associated, actin dependent regulator of chromatin, subfamily a, member 2 (SMARCA2, BRM): Luminescence-based cell-based high throughput dose response assay to identify non-selective compounds using the VP16 reporter assay.; type: functional
[13] = target: SWI/SNF-related matrix-associated actin-dependent regulator of chromatin subfamily A member 2 (Homo sapiens, UniProt P51531); test: Luminescence-based cell-based high throughput dose response assay to identify activators of the function of SWI/SNF related, matrix associated, actin dependent regulator of chromatin, subfamily a, member 2 (SMARCA2, BRM).; type: functional
[14] = target: T6, Rac GTPase-activating protein 1 (Homo sapiens, UniProt Q9H0H5); test: blockers of MgcRacGAP-driven Rac1 GTP hydrolysis – biochemical, ADP Hunter fluorescence, primary and confirmatory, confirmation (AID 624330); type: functional
T6 sequence (Q9H0H5 whole entry): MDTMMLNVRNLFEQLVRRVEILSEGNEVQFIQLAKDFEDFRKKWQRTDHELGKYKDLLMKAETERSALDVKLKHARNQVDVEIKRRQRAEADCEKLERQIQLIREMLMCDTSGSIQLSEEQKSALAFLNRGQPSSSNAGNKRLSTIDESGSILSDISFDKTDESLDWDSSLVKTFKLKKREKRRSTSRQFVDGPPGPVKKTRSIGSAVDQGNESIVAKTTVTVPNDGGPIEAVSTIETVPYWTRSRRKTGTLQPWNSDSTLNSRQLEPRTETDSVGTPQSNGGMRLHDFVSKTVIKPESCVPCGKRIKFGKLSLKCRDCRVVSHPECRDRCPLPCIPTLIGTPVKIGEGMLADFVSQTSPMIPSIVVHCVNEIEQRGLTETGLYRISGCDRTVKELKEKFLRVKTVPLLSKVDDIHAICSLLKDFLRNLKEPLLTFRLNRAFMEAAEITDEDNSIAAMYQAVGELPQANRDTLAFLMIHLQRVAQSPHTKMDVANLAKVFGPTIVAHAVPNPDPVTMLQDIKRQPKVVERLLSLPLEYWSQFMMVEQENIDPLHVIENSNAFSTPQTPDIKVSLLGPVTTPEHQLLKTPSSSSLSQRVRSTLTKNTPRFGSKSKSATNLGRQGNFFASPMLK

[15] = target: T7, Adenosylmethionine-8-amino-7-oxononanoate aminotransferase (Mycobacterium tuberculosis, UniProt P9WQ81); test: Mycobacterium tuberculosis BioA enzyme inhibitor Measured in Biochemical System Using Plate Reader - 2163-02_Inhibitor_Dose_CherryPick_Activity.; type: functional, Mycobacterium tuberculosis UT205
T7 sequence (P9WQ81 whole entry): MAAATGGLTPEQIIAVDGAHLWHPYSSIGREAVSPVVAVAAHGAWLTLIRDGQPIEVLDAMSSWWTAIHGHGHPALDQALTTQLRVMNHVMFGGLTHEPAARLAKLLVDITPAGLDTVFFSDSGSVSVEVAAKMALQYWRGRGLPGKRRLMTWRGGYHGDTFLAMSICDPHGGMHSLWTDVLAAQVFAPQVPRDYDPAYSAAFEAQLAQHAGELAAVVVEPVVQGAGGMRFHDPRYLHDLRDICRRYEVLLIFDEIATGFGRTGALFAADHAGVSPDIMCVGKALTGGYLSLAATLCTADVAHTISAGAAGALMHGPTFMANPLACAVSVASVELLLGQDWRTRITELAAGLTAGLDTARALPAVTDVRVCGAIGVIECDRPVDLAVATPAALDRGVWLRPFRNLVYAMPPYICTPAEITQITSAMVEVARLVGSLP

T4 sequence (P63165 whole entry): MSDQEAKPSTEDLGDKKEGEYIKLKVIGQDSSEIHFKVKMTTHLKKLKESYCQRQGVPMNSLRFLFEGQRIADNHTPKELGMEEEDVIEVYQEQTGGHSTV
Sequence of SWI/SNF-related matrix-associated actin-dependent regulator of chromatin subfamily A member 2 (P51531 whole entry): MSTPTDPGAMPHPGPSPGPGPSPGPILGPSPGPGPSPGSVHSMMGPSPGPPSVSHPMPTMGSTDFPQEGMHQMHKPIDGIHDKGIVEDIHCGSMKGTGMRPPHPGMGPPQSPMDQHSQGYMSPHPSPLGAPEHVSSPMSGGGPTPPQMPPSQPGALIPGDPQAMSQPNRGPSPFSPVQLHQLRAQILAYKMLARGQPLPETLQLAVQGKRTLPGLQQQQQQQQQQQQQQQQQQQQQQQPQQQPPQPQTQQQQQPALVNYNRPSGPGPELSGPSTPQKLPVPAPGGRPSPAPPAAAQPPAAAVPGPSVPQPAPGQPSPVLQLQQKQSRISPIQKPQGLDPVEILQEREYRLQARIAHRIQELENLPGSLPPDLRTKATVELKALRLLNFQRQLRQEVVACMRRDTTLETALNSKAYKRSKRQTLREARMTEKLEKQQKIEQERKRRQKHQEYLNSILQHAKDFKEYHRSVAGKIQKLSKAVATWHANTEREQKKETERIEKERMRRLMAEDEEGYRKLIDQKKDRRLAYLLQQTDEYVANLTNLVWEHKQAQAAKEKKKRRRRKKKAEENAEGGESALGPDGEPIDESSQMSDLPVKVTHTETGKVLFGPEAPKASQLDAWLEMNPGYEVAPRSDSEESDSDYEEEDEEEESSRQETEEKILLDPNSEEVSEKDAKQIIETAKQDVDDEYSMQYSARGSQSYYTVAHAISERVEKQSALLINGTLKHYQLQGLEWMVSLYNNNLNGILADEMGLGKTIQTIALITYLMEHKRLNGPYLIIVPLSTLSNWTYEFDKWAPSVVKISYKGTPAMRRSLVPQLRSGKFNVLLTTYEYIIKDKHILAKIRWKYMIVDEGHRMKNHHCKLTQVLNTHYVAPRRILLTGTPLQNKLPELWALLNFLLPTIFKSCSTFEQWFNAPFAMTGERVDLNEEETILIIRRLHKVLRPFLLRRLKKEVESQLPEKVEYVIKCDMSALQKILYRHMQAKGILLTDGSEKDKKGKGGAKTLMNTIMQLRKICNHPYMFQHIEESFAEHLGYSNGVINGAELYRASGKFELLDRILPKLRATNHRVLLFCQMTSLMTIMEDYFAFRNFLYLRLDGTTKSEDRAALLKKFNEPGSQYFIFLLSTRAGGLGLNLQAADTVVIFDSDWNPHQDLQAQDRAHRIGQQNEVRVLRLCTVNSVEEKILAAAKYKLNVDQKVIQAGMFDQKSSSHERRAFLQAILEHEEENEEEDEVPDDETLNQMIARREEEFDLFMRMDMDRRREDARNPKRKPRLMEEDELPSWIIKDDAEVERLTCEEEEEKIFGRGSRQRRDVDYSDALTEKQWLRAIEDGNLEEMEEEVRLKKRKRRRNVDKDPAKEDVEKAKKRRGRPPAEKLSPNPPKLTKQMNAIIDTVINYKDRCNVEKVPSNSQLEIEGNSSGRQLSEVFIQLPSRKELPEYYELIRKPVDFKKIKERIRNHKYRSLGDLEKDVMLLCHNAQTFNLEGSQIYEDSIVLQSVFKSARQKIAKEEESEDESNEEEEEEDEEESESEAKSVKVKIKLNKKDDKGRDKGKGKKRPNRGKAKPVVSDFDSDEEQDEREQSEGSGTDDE

CC1(C(=O)Nc2ccccc2)Cc2c(-c3ccc4c(c3)OCO4)ccnc2O1 (centres undefined)
IC50 [1]: 2.52 µM (active)

O=C(O)c1cnc(-c2ccccc2)nc1Sc1ccc(Cl)cc1
IC50 [2]: 16.8 µM (active)
IC50 [3]: > 20 µM (inactive)
EC50 [4]: > 53 µM (inactive)
EC50 [5]: 98.3 µM (inconclusive)

CC(=O)c1ccc(NC(=O)c2cccc(N3C(=O)c4ccccc4C3=O)c2)cc1
IC50 [6]: 9.44 µM (active)
IC50 [7]: 3.13 µM (active)
IC50 [8]: > 66.6 µM (inactive)

COCCNC(=O)c1ccc(CS(=O)(=O)c2c(Cl)cccc2Cl)o1
IC50 [9]: > 100 µM (active)

Cc1cc(C)n(Cc2ccc(Cl)nc2)n1
IC50 [10]: > 109 µM (inactive)
IC50 [11]: > 83.3 µM (inactive)

Cc1cc(C)nc(SCc2nc3ncccn3c2Br)n1
IC50 [1]: 1.47 µM (active)

CCN(CC)C(=O)CSc1nnc(-c2cccc(OC)c2)o1
EC50 [12]: > 91.1 µM (inactive)
EC50 [13]: > 91.1 µM (inactive)

O=C(Nc1ccc(O)cc1)c1cccc(Oc2ccc([N+](=O)[O-])cc2)c1
IC50 [2]: 25.9 µM (active)
IC50 [14]: 41.8 µM (active)
IC50 [3]: > 20 µM (inactive)
EC50 [4]: > 53 µM (inactive)

C/C=C/c1ccc2c(c1)O[C@@H](CN(C)C(=O)c1ccc3c(c1)OCO3)[C@@H](C)CN([C@@H](C)CO)S2(=O)=O
AC50 [15]: 5.33 µM (active)
